Measurements published in BindingDB's records for patent US11814367 (Maze Therapeutics, 2023).

Columns and labels:
[1] = target: T1, Glycogen [starch] synthase, muscle (Homo sapiens, UniProt P13807); assay: Kinetic Biochemical Assay
T1 sequence (P13807 whole entry): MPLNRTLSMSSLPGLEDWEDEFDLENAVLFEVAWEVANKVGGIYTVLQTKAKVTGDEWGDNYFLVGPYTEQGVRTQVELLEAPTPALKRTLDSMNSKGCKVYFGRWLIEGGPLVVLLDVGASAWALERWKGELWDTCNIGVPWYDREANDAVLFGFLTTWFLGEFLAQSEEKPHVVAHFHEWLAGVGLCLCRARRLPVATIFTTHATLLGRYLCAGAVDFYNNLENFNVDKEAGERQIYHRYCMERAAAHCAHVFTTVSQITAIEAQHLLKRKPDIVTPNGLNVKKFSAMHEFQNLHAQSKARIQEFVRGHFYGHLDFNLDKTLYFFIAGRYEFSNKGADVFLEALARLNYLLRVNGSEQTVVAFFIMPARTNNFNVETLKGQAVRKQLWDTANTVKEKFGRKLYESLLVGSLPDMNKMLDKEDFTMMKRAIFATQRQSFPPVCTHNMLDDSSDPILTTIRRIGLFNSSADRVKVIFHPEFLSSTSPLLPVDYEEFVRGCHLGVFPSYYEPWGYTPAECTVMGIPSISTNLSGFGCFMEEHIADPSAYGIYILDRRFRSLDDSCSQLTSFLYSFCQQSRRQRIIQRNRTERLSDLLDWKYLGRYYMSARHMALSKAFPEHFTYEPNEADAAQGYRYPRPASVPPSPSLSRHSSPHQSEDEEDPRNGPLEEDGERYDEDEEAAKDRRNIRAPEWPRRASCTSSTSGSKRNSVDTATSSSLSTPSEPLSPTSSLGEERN
Protocol: The Assay Buffer contained 50 mM Tris pH 7.5, 2 mM MgCl2, and 100 mM KCl. Fresh stocks of BSA at a final concentration of 0.02% and TCEP at 1 mM were added before splitting buffer into hGYS1 buffer and substrate buffer. To the hGYS1 buffer, rabbit liver glycogen was added at a final concentration of 0.2% glycogen. Glucose-6-Phosphate was added at 1 mM, recombinant hGYS1/GN1 protein was added at 50 nM to the substrate buffer, phosphoenolpyruvate (PEP) was added at 2 mM, UDP-Glucose was added at 0.8 mM, NADH) was added at 0.6 mM, and Pyruvate Kinase/Lactate Dehydrogenase was added at 20 units/mL. The reaction was initiated by mixing hGYS1 buffer and substrate buffer at a 1:1 ratio. Both buffers were plated using a liquid dispensing device with hGYS1 buffer plated first followed by the substrate buffer. Plates were spun briefly to eliminate air bubbles and are immediately read in continuous mode at an absorbance of 340 nm, for 10 time points in one-minute increments, for a total of 10 minutes. The slope from these 10 time points was normalized to the positive and negative control wells.

[2] = target: T2, Glycogen [starch] synthase, liver (Homo sapiens, UniProt P54840); assay: The GYS2 coupled enzyme assay
T2 sequence (P54840 whole entry): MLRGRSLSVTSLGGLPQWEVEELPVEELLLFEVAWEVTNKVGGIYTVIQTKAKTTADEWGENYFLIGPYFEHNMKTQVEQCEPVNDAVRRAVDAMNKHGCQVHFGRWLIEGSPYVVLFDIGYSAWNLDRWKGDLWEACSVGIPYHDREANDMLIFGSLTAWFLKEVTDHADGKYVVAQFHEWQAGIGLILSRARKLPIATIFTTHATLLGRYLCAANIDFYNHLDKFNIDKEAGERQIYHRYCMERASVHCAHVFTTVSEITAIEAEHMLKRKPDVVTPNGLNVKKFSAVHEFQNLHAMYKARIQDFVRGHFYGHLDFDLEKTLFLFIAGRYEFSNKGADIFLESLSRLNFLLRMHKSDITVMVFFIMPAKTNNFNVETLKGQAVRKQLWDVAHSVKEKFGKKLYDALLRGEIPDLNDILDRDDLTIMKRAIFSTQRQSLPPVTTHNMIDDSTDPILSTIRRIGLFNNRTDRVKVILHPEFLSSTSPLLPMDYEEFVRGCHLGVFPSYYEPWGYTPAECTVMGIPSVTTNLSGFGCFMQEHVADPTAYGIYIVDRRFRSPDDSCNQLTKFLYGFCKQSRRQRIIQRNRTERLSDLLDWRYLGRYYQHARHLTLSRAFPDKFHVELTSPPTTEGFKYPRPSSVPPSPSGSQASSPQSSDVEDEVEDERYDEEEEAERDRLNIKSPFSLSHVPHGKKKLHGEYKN
Protocol: Compounds that inhibit the hGYS2 enzyme and, subsequently, the downstream conversion of NADH to NAD+, were tested using assay ready plates (black, clear bottom 384 well plates) in a final DMSO reaction volume of 2.5% DMSO. The Assay Buffer contained 50 mM Tris pH 7.5, 2 mM MgCl2, and 100 mM KCl. Fresh stocks of BSA at a final concentration of 0.02% and TCEP 1 mM were added before splitting buffer into hGYS2 buffer and substrate buffer. To the hGYS2 buffer, rabbit liver glycogen was added at a final concentration of 0.2% glycogen. Glucose-6-Phosphate was added at 2 mM, recombinant hGYS2/GN1 protein was added at 200 nM to the substrate buffer, phosphoenolpyruvate (PEP) was added at 2 mM, UDP-Glucose was added at 2 mM, NADH was added at 0.6 mM, and Pyruvate Kinase/Lactate Dehydrogenase was added at 20 units/mL. The reaction was initiated by mixing hGYS2 buffer and substrate buffer at a 1:1 ratio. Both buffers were plated using a liquid dispensing device with hGYS2 buffer plated first followed by the substrate buffer. Plates were spun briefly to eliminate air bubbles and are immediately read in continuous mode at an absorbance of 340 nm, for 10 time points in one-minute increments, for a total of 10 minutes. The slope from these 10 time points was normalized to the positive and negative control wells. The duplicate % inhibition values are then averaged and fit to a Hill equation for dose response according to the Levenberg-Marquardt algorithm with the Hill equation maximum set to 100 and the minimum set to 0.The results are shown in Table 4 below

CC(=O)N1C[C@H](F)C[C@H]1C(=O)NC(c1ccc2cn[nH]c2c1)c1ccc(C(C)C)c(F)n1 (single isomer, unassigned) [US11814367, Compound 634]
IC50 [1]: 43 nM

CC(=O)N1C[C@H](F)C[C@H]1C(=O)NC(c1ccc2cnn(C)c2c1)c1ccc(C(C)C)c(F)n1 (single isomer, unassigned) [US11814367, Compound 635]
IC50 [1]: 82 nM

CC(=O)N1C[C@H](F)C[C@H]1C(=O)NC(c1ccc2cn(C)nc2c1)c1ccc(C(C)C)c(F)n1 (single isomer, unassigned) [US11814367, Compound 636]
IC50 [1]: 71 nM

CC(=O)N1C[C@H](F)C[C@H]1C(=O)NC(c1ccc2cn[nH]c2c1)c1ccc(C2CC2)c(F)n1 (single isomer, unassigned) [US11814367, Compound 637]
IC50 [1]: 453 nM

CC(=O)N1C[C@H](F)C[C@H]1C(=O)NC(c1ccc(C(C)C)cc1)c1ccccc1N (single isomer, unassigned) [US11814367, Compound 642]
IC50 [1]: 1330 nM | IC50 [2]: > 100000 nM

COc1cccc(C(NC(=O)[C@@H]2C[C@@H](F)CN2C(C)=O)c2ccc(C(C)C)c(F)n2)c1 (single isomer, unassigned) [US11814367, Compound 654]
IC50 [1]: 252 nM

CC(=O)N1C[C@H](F)C[C@H]1C(=O)NC(c1ccccc1)c1ccc(C2CCC2)c(F)c1 (single isomer, unassigned) [US11814367, Compound 660]
IC50 [1]: 309 nM | IC50 [2]: > 100000 nM

CC(=O)N1C[C@H](F)C[C@H]1C(=O)NC(c1cccc(-c2cc(C)nn2C)c1)c1ccc(C(C)C)c(F)n1 (single isomer, unassigned) [US11814367, Compound 697]
IC50 [1]: 1780 nM

CC(=O)N1Cc2nccnc2CC1C(=O)N1C[C@H](F)C[C@H]1C(=O)N[C@@H](c1ccccc1)c1ccc(C(C)C)cc1 (some centres not stated) [US11814367, Compound 167]
IC50 [1]: 116 nM | IC50 [2]: > 100000 nM

CC(C)c1ccc([C@@H](NC(=O)[C@@H]2C[C@@H](F)CN2C(=O)CC2COC2)c2ccccc2)cc1 [US11814367, Compound 218]
IC50 [1]: 293 nM | IC50 [2]: > 100000 nM

CC(C)c1ccc([C@@H](NC(=O)[C@@H]2C[C@@H](F)CN2C(=O)COC(=O)N(C)C)c2ccccc2)nc1 [US11814367, Compound 251]
IC50 [1]: 53 nM | IC50 [2]: > 100000 nM

NC(=O)NCC(=O)N1C[C@H](F)C[C@H]1C(=O)N[C@@H](c1ccccc1)c1ccc(C2CC2)c(F)n1 [US11814367, Compound 302]
IC50 [1]: 67 nM | IC50 [2]: > 100000 nM

O=C(N[C@@H](c1ccccc1)c1ccc(C2CC2)c(F)n1)[C@@H]1C[C@@H](F)CN1C(=O)CNC(=O)N1CCC1 [US11814367, Compound 305]
IC50 [1]: 24 nM

CC(C)c1ccc([C@@H](NC(=O)[C@@H]2C[C@@H](F)CN2C(=O)CNC(=O)N(C)C)c2ccccc2)cc1F [US11814367, Compound 361]
IC50 [1]: 10 nM | IC50 [2]: > 100000 nM

CC(C)c1ccc([C@@H](NC(=O)[C@@H]2C[C@@H](F)CN2C(=O)c2ccc3c(cnn3C)c2)c2ccccc2)cc1 [US11814367, Compound 702]
IC50 [1]: 1260 nM

O=C(N[C@H](c1ccccc1)c1ccc(C2CC2)c(F)n1)[C@@H]1C[C@@H](F)CN1C(=O)Cn1cnc2ccccc21 [US11814367, Compound 716]
IC50 [1]: 2160 nM

CC(C)c1ccc([C@@H](NC(=O)[C@@H]2C[C@@H](F)CN2C(=O)Cn2cc(N3CCC3)nn2)c2ccccc2)nc1F [US11814367, Compound 787]
IC50 [1]: 7 nM | IC50 [2]: > 100000 nM

COc1nc(CC(=O)N2C[C@H](F)C[C@H]2C(=O)N[C@@H](c2ccccc2)c2ccc(C(C)C)c(F)n2)nn1C [US11814367, Compound 800]
IC50 [1]: 9 nM

CC(C)c1ccc([C@@H](NC(=O)[C@@H]2C[C@@H](F)CN2C(=O)Cc2nc(C(F)(F)F)co2)c2ccccc2)nc1F [US11814367, Compound 801]
IC50 [1]: 24 nM
